Test results taken from publication PMC9927415, “Tyrosine Kinase Inhibitors Display Potent Activity against Cryptosporidium parvum” (Microbiology Spectrum, 2022).

What was measured:
[1] = biological target: T1, panel of 203 kinases (Homo sapiens, UniProt P27037); assay: KINOMEscan competitive binding, whole panel; details: 10 µM, n=1; kinase ACVR2A; read-out: Percent inhibition ACVR2A
T1 construct: purchased DiscoverX (KINOMEscan)
In short: (§1)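 Percentage inhibition reflects loss of kinase binding to solid-phase ATP-site probe ligands in the presence of compound. Kinases carry a T7 bacteriophage fusion.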

[2] = biological target: T2, panel of 203 kinases (Homo sapiens, UniProt P54764); assay: KINOMEscan competitive binding, whole panel; details: 10 µM, n=1; kinase EPHA4; read-out: Percent inhibition EPHA4
T2 construct: purchased DiscoverX (KINOMEscan)
T2 sequence (P54764 20-986): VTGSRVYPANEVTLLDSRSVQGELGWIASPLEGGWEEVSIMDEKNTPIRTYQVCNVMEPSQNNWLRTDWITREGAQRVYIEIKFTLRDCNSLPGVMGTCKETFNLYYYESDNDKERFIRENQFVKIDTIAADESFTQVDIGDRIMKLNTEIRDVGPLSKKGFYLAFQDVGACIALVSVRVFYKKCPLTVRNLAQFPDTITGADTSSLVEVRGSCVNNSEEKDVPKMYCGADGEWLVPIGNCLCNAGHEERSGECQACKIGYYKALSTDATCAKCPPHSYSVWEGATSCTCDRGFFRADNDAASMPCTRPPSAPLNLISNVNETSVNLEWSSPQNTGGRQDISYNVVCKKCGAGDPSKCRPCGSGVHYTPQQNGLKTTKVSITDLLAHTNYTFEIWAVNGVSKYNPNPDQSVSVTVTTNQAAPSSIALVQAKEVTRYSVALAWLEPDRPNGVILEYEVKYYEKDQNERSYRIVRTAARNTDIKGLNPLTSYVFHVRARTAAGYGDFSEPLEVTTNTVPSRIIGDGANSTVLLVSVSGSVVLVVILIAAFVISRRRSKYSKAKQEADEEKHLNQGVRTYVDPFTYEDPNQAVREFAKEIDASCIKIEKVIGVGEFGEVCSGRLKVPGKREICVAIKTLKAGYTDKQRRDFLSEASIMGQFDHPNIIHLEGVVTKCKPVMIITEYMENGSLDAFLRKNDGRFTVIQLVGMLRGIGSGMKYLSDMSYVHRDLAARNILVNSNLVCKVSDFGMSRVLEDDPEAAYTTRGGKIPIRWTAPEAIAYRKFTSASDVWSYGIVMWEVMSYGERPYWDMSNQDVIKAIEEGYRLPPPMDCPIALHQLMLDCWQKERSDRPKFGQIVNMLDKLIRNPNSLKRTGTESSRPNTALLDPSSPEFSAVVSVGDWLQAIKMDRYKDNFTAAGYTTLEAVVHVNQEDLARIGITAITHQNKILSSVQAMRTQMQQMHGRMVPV
In short: as §1

[3] = biological target: T3, panel of 203 kinases (Homo sapiens, UniProt P53779); assay: KINOMEscan competitive binding, whole panel; details: 10 µM, n=1; kinase JNK3; read-out: Percent inhibition JNK3
T3 construct: purchased DiscoverX (KINOMEscan)
T3 sequence (P53779 whole entry): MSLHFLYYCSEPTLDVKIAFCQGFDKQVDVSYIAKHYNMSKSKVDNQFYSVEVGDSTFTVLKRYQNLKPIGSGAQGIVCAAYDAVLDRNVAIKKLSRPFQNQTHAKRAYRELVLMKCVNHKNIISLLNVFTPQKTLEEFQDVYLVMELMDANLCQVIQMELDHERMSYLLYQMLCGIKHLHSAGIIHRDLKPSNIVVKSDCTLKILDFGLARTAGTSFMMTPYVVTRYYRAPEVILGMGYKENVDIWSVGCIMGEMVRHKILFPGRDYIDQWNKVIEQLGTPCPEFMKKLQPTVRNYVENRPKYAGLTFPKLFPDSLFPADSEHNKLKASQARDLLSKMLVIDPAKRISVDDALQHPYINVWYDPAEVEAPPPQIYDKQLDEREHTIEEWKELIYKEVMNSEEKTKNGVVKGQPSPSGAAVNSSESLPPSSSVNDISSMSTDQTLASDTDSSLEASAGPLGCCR
In short: as §1

[4] = biological target: T4, panel of 203 kinases (Homo sapiens, UniProt P45984); assay: KINOMEscan competitive binding, whole panel; details: 10 µM, n=1; kinase JNK2; read-out: Percent inhibition JNK2
T4 construct: purchased DiscoverX (KINOMEscan)
T4 sequence (P45984 whole entry): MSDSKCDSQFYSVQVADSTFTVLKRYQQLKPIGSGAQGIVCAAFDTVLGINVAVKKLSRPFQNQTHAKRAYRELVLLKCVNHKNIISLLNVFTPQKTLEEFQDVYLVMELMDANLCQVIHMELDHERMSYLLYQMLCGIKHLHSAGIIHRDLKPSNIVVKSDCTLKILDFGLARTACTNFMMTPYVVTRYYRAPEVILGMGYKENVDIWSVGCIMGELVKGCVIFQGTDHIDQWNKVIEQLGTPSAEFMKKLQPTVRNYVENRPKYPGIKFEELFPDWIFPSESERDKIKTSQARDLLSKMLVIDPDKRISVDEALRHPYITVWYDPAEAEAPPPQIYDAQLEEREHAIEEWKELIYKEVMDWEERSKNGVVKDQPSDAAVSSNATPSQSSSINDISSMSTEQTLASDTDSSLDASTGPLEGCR
In short: as §1

[5] = biological target: T5, panel of 203 kinases (Homo sapiens, UniProt Q8TDX7); assay: KINOMEscan competitive binding, whole panel; details: 10 µM, n=1; kinase NEK7; read-out: Percent inhibition NEK7
T5 construct: purchased DiscoverX (KINOMEscan)
T5 sequence (Q8TDX7 whole entry): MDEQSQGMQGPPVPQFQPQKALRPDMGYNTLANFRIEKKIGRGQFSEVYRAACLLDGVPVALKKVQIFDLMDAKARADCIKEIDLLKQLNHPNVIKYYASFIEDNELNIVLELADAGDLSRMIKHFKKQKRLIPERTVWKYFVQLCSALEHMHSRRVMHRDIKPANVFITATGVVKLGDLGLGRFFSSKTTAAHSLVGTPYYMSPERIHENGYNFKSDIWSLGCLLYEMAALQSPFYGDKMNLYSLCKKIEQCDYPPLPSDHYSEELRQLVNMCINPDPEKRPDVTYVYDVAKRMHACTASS
In short: as §1

[6] = biological target: T6, panel of 203 kinases (Homo sapiens, UniProt P31751); assay: KINOMEscan competitive binding, whole panel; details: 10 µM, n=1; kinase AKT2; read-out: Percent inhibition AKT2
T6 construct: purchased DiscoverX (KINOMEscan)
T6 sequence (P31751 whole entry): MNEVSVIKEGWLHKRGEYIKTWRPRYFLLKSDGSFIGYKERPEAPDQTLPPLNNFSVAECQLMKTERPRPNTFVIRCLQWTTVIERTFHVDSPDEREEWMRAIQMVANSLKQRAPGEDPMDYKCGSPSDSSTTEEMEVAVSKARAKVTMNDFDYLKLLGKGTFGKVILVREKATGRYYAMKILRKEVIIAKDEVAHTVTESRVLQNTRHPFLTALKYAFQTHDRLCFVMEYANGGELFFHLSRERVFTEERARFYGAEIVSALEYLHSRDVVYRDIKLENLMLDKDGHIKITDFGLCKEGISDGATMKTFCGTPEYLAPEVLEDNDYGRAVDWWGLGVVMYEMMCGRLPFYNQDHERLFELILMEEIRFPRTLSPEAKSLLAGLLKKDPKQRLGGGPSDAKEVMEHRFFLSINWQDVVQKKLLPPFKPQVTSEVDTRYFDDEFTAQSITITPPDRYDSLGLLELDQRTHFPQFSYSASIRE
In short: as §1

[7] = biological target: T7, panel of 203 kinases (Homo sapiens, UniProt Q09013); assay: KINOMEscan competitive binding, whole panel; details: 10 µM, n=1; kinase DMPK; read-out: Percent inhibition DMPK
T7 construct: purchased DiscoverX (KINOMEscan)
T7 sequence (Q09013 1-629): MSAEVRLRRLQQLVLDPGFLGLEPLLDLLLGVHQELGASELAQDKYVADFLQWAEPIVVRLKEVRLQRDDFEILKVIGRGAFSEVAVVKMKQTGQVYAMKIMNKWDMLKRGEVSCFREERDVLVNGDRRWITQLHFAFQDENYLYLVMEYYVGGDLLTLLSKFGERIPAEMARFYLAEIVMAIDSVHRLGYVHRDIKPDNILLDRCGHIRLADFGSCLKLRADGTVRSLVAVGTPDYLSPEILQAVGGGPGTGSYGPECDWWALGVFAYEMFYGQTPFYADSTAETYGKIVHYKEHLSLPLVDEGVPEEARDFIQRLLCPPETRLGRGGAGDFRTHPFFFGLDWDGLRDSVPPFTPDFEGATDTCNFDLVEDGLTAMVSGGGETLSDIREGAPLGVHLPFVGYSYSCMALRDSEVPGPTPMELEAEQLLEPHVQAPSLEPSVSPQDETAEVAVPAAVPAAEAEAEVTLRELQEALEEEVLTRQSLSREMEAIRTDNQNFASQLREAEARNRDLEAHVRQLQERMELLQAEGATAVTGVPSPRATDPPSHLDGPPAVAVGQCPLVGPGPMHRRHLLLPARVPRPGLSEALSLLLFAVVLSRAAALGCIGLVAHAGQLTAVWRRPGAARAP
In short: as §1

[8] = biological target: T8, panel of 203 kinases (Homo sapiens, UniProt P36896); assay: KINOMEscan competitive binding, whole panel; details: 10 µM, n=1; kinase ACVR1B; read-out: Percent inhibition ACVR1B
T8 construct: purchased DiscoverX (KINOMEscan)
T8 sequence (P36896 24-505): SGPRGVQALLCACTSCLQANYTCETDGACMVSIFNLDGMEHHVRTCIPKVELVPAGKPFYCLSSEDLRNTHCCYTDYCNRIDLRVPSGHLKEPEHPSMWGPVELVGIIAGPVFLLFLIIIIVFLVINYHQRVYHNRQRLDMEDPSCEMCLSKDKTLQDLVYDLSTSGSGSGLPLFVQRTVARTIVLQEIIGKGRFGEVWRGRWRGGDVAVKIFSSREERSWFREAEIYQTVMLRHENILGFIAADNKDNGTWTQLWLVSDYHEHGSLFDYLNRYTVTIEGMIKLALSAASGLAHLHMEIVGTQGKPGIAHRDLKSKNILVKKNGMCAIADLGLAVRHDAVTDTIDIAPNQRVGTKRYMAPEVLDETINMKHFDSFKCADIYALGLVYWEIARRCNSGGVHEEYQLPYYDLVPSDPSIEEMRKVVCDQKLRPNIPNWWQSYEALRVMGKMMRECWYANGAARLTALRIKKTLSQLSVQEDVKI
In short: as §1

[9] = biological target: T9, panel of 203 kinases (Homo sapiens, UniProt P04626); assay: KINOMEscan competitive binding, whole panel; details: 10 µM, n=1; kinase ERBB2; read-out: Percent inhibition ERBB2
T9 construct: purchased DiscoverX (KINOMEscan)
In short: as §1

[10] = biological target: T10, PKN2 (Homo sapiens, UniProt Q16513); assay: KINOMEscan competitive binding; details: n=1, read-out: Percent inhibition, PKN2
T10 construct: purchased DiscoverX (KINOMEscan)
T10 sequence (Q16513 whole entry): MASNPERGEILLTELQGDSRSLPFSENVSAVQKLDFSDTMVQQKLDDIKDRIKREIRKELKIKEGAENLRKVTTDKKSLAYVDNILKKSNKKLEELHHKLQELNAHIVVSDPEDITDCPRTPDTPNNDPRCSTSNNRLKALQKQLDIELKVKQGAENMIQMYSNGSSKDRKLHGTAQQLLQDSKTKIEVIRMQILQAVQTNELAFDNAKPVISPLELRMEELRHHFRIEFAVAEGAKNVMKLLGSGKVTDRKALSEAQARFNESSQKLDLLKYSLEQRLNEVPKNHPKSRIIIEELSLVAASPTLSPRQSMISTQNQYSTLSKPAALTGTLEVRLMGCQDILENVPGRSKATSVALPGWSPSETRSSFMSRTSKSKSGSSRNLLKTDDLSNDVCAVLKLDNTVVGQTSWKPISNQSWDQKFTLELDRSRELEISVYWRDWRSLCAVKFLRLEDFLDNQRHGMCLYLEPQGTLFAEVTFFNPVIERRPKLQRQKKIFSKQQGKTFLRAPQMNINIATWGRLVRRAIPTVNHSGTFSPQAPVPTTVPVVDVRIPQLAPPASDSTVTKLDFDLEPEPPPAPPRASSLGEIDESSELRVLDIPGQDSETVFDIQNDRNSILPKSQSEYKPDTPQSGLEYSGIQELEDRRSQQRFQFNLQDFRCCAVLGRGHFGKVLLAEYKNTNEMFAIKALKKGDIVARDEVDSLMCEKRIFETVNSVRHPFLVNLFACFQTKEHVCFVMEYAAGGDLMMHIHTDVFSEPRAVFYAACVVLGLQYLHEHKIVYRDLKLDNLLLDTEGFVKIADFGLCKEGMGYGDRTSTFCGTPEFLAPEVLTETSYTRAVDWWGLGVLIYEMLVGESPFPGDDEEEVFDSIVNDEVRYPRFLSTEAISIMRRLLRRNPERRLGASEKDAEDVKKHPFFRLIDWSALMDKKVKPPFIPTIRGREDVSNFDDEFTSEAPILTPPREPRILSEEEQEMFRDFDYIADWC

[11] = biological target: T11, TRKB (Homo sapiens, UniProt Q16620); assay: KINOMEscan competitive binding; details: n=1, read-out: Percent inhibition, TRKB
T11 construct: purchased DiscoverX (KINOMEscan)
T11 sequence (Q16620 32-822): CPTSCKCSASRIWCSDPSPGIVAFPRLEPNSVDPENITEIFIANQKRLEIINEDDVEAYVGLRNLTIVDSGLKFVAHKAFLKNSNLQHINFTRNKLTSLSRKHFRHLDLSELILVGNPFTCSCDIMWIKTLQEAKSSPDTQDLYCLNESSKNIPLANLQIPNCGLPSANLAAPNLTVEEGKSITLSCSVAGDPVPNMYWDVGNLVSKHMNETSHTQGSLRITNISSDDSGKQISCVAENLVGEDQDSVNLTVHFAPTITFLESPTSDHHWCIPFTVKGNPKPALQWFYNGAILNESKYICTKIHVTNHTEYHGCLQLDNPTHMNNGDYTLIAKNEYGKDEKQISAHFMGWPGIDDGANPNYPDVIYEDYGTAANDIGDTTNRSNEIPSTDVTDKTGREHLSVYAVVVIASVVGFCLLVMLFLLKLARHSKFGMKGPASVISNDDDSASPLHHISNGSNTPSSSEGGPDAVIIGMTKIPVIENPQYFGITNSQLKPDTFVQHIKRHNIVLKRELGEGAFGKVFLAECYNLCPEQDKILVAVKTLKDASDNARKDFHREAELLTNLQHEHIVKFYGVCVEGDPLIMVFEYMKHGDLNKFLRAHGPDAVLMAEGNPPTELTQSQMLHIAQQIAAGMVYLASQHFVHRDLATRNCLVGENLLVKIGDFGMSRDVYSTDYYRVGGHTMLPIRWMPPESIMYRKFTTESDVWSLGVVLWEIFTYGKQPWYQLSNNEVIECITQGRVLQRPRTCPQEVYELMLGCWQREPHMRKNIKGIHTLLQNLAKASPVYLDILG

[12] = biological target: T12, TGFBR1 (Homo sapiens, UniProt P36897); assay: KINOMEscan competitive binding; details: n=1, read-out: Percent inhibition, TGFBR1
T12 construct: purchased DiscoverX (KINOMEscan)
T12 sequence (P36897 34-503): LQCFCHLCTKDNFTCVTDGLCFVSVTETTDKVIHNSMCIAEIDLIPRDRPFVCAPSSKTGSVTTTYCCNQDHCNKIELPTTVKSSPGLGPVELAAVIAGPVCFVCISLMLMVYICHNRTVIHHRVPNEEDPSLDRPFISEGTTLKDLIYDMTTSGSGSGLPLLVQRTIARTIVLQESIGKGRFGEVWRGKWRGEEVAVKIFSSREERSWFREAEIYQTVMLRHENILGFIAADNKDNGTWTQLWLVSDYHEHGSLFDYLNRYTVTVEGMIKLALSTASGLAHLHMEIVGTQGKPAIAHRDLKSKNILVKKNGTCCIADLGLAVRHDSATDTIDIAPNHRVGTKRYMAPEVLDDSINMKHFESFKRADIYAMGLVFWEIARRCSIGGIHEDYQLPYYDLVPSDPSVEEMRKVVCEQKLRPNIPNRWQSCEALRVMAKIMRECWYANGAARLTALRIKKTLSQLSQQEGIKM

T1 sequence (P27037 20-513): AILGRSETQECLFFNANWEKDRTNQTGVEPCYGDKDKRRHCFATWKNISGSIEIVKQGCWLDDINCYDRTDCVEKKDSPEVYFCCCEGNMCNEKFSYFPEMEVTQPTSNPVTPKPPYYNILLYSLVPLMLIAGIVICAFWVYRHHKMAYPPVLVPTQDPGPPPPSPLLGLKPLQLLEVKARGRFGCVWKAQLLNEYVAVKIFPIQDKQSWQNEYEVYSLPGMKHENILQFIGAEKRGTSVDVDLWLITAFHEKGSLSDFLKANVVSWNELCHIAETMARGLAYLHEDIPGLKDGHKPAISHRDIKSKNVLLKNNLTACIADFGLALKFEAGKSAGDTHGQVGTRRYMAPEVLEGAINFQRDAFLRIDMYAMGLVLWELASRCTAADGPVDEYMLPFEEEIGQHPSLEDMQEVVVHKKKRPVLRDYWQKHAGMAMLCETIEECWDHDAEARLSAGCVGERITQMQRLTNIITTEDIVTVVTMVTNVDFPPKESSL

| SMILES | inhibition at 10 µM [1] | inhibition at 10 µM [2] | inhibition at 10 µM [3] | inhibition at 10 µM [4] | inhibition at 10 µM [5] | inhibition at 10 µM [6] | inhibition at 10 µM [7] | inhibition at 10 µM [8] | inhibition at 10 µM [9] | inhibition at 10 µM [10] | inhibition at 10 µM [11] | inhibition at 10 µM [12] |
| --- | --- | --- | --- | --- | --- | --- | --- | --- | --- | --- | --- | --- |
| CN1CCN(c2ccc(Nc3nccc(-c4cnn5ncccc45)n3)cc2C#N)CC1 [Compound 1] | 0% | 0% | 100% | 96.5% | 100% | 0% | 0% | 77.1% | 0% | 67.8% | 96.5% | 78.8% |
| COc1ccc(Nc2nccc(-c3cnn4ncccc34)n2)cc1 [Compound 2] | 0% | 0% | 100% | 99.1% | 100% | 0% | 0% | 0% | 0% | 0% | 0% | 0% |
| Cc1ccc(O)cc1Nc1ccnc(Nc2cccc(C(N)=O)c2)n1 [Compound 3] | 99.3% | 100% | 94.2% | 0% | 0% | 0% | 0% | 96.5% | 0% | 0% | 0% | 100% |
| Cc1ccc(O)cc1N(C)c1ccnc(Nc2cccc(S(N)(=O)=O)c2)n1 [Compound 4] | 99.7% | 100% | 96.1% | 71.3% | 0% | 0% | 0% | 99% | 0% | 0% | 91.7% | 100% |
| Fc1cccc(COc2ccc(Nc3ncnc4c3CN(CCN3CCOCC3)CC4)cc2Cl)c1 [Compound 6] | 0% | 0% | 0% | 0% | 0% | 0% | 0% | 0% | 86.5% | 71.4% | 0% | 0% |
| COc1cc(Nc2nccc(-c3sc(N)nc3-c3cccc(NC(=O)c4c(F)cccc4F)c3)n2)cc(OC)c1OC [Compound 7] | 0% | 99.8% | 100% | 99% | 91.3% | 0% | 87.5% | 74.9% | 100% | 0% | 0% | 72.9% |
| C[C@@H](Oc1cc(-c2cnc3ccccn23)sc1C(N)=O)c1ccccc1Cl [Compound 8] | 0% | 0% | 0% | 0% | 0% | 0% | 0% | 0% | 0% | 79.3% | 0% | 0% |
| c1ccc(COc2cccc(-c3ccnc4[nH]ccc34)c2)cc1 [Compound 9] | 0% | 0% | 0% | 0% | 0% | 0% | 0% | 0% | 0% | 0% | 0% | 0% |
| Clc1ccc(Nc2ncc(-c3ccccc3)s2)cc1 [Compound 10] | 0% | 0% | 0% | 0% | 0% | 0% | 0% | 0% | 0% | 0% | 0% | 0% |
| Nc1ncc2c(-c3ccncc3)c[nH]c2n1 [Compound 11] | 0% | 0% | 97.1% | 0% | 0% | 0% | 0% | 0% | 0% | 0% | 0% | 0% |
